Test results: patent US11103504B2, “Combination of a DNA condensation-inducing compound and an Eis inhibitor for antibiotic treatment” (priority 2018, dated 2021)

What was measured:
[1] = test system: M. tuberculosis mc^26030; experiment: DNA-condensation incidence by fluorescence microscopy; assay type: cell-based, Mycobacterium tuberculosis; settings: for induction of condensation of the DNA: summary statement; for fraction of bacilli with condensed DNA: 20 times the MIC50, 1 hour, vs control, P<0.05, FIG. 2D
[2] = test system: M. smegmatis mc^23449 SMC triple deletion mutant; assay type: cell-based, Mycobacterium smegmatis; settings: FA 1 hour, FIGS. 6A-B
[3] = test system: M. smegmatis mc^2155; experiment: Monitoring mycobacterial survival (OD600, CFU); assay type: cell-based, Mycobacterium smegmatis; settings: combination of fusidic acid and Eis inhibition
Protocol: M. smegmatis mc^2155 overnight cultures were treated with FA, EIS inhibitor 1a*, or a combination hereof. Cultures were treated with antibiotic for 1 hour before second antibiotic was administered. Before treatment, and after 2 hours and at day 1,2,3 and 6, the OD600 was determined with a spectrophotometer, and a sample of the culture was fixed, or plated in a dilution series on 7H10 plates in triplo. At day 2, the antibiotic treatment was repeated. At least 3 independent experiments were quantified per condition.
In all experiments, factor correction was applied to remove systematic differences between the different measuring sessions needed to obtain the results. In case of 2 experimental conditions, Student's t-test was applied. […] To further dissect these effects, a 1-way ANOVA per time point was performed.

[4] = test system: M. smegmatis mc^2155; experiment: Transmission electron microscopy of ultrathin sections; assay type: cell-based, Mycobacterium smegmatis; settings: FA treated, early log phase
[5] = test system: M. smegmatis mc^2155; experiment: DNA localization / DNA-condensation by fluorescence microscopy; assay type: cell-based, Mycobacterium smegmatis
[6] = test system: M. tuberculosis mc^26030; assay type: cell-based, Mycobacterium tuberculosis; settings: 1 hour after FA treatment vs untreated
[7] = test system: M. smegmatis; experiment: Live cell imaging with bacterial viability staining; assay type: cell-based, Mycobacterium smegmatis; settings: live-cell imaging started 5 minutes after FA addition
[8] = test system: M. smegmatis mc^2 155; experiment: DNA volume quantification (deconvolved wide-field FM); assay type: cell-based, Mycobacterium smegmatis; settings: incubated with FA for 1 hour, FIG. 5B
Protocol: Z-stack Wide-field FM images of fixed M. smegmatis mc^2 155 stained for DNA and lipids were collected at 200 nm increments. Deconvolution and DNA volume quantification was subsequently performed using standard deconvolution parameters of Huygens Professional software (Scientific Volume Imaging, SVI, Hilversum, The Netherlands). Average volume was determined for 60 bacteria per condition per experiment and standard deviation was calculated with 2-tailed T-test.

## CC(=O)NC[C@H]1CN(c2ccc(N3CCOCC3)c(F)c2)C(=O)O1 [linezolid]
[1]
  induction of condensation of the DNA: can induce condensation of the DNA

## CC(=O)O[C@H]1C[C@@]2(C)[C@@H](C[C@@H](O)[C@H]3[C@@]4(C)CC[C@@H](O)[C@@H](C)[C@@H]4CC[C@@]32C)/C1=C(\CCC=C(C)C)C(=O)O [fusidic acid]
[1]
  incidence of DNA-condensation after wash-out (reversibility): increased until 6 hours after treatment, followed by a gradual reduction
  fraction of bacilli with condensed DNA: increased the percentage bacteria with condensed DNA significantly
  induction of condensation of the DNA: can induce condensation of the DNA
[1]; same experimental conditions as M. smegmatis, FIG. 2B
  DNA localization after FA treatment: condensed their DNA into a single nucleoid
[2]
  DNA condensation after FA treatment in SMC triple knock out: clearly visible
[3]
  potentiation of efficacy by the combination: 10 fold
[4]
  ultrastructural DNA localization (TEM): bundles of DNA were localized in a single compact nucleoid
[5]; 2 days of incubation, first agent 1 hour before second
  DNA distribution after 2 days: still displayed condensed DNA
[5]; after 1 hour of antibiotic stress, FIG. 2C
  bacteria that condensed their nucleoid: more than 80%
[5]; early log phase, FIG. 2A
  bacteria that condensed their DNA into a single nucleoid after FA treatment: more than 90%
[6]
  percentage of nonviable bacteria with condensed DNA: did not differ
  percentage of viable bacteria with condensed DNA: increased significantly
[7]
  time until first bacteria converted from viable to inviable: 16 min
[8]
  average 3D volume of the DNA clusters: 0.24 μm^3

## NNC(=O)c1ccncc1 [isoniazid]
[1]
  induction of condensation of the DNA: can induce condensation of the DNA

## CCn1cc(C(=O)O)c(=O)c2ccc(C)nc21 [nalidixic acid]
[1]
  fraction of bacilli with condensed DNA: increased the percentage bacteria with condensed DNA significantly
  induction of condensation of the DNA: can induce condensation of the DNA

## [H]/N=C(/N)N[C@H]1[C@H](O)[C@@H](O)[C@H](O[C@@H]2O[C@@H](C)[C@](O)(C=O)[C@H]2O[C@@H]2O[C@@H](CO)[C@H](O)[C@@H](O)[C@@H]2NC)[C@@H](N/C(N)=N\[H])[C@@H]1O [streptomycin]
[1]
  fraction of bacilli with condensed DNA: increased the percentage bacteria with condensed DNA significantly
  induction of condensation of the DNA: can induce condensation of the DNA
